What was measured:
Type in all cases: functional
Acinetobacter baumannii [1] = experiment: Antibacterial activity against Acinetobacter baumannii 3560 assessed as reduction in microbial growth incubated for 16 hrs by broth microdilution method
Acinetobacter baumannii [2] = experiment: Antibacterial activity against Acinetobacter baumannii 4269 assessed as reduction in microbial growth incubated for 16 hrs by broth microdilution method
Acinetobacter baumannii [3] = experiment: Antibacterial activity against Acinetobacter baumannii 4456 assessed as reduction in microbial growth incubated for 16 hrs by broth microdilution method
Acinetobacter baumannii [4] = experiment: Potentiation of clarithromycin-induced antibacterial activity against Acinetobacter baumannii 3785 assessed as fold reduction in clarithromycin MIC at 7.5 uM incubated for 16 hrs by broth microdilution method
Acinetobacter baumannii [5] = experiment: Potentiation of clarithromycin-induced antibacterial activity against Acinetobacter baumannii 4025 assessed as fold reduction in clarithromycin MIC at 7.5 uM incubated for 16 hrs by broth microdilution method
Acinetobacter baumannii [6] = experiment: Potentiation of clarithromycin-induced antibacterial activity against Acinetobacter baumannii 4052 assessed as fold reduction in clarithromycin MIC at 7.5 uM incubated for 16 hrs by broth microdilution method
Acinetobacter baumannii [7] = experiment: Potentiation of clarithromycin-induced antibacterial activity against Acinetobacter baumannii 4498 assessed as fold reduction in clarithromycin MIC at 7.5 uM incubated for 16 hrs by broth microdilution method
Acinetobacter baumannii [8] = experiment: Potentiation of clarithromycin-induced antibacterial activity against Acinetobacter baumannii 4795 assessed as fold reduction in clarithromycin MIC at 7.5 uM incubated for 16 hrs by broth microdilution method
Acinetobacter baumannii [9] = experiment: Potentiation of clarithromycin-induced antibacterial activity against Acinetobacter baumannii 4957 assessed as fold reduction in clarithromycin MIC at 7.5 uM incubated for 16 hrs by broth microdilution method
Acinetobacter baumannii [10] = experiment: Potentiation of clarithromycin-induced antibacterial activity against Acinetobacter baumannii AB5075 assessed as clarithromycin MIC at 15 uM incubated for 16 hrs by broth microdilution method (reference value: […] ug/ml)

MIC (Acinetobacter baumannii [1]): 25 µM | MIC (Acinetobacter baumannii [2]): 25 µM | MIC (Acinetobacter baumannii [3]): 25 µM | MIC (Acinetobacter baumannii [10]): 0.125 µg/mL
SMILES: Cl.Nc1nc(-c2ccc(NC(=O)Nc3cc(Br)cc(Br)c3)cc2)c[nH]1
fold change (FC) (Acinetobacter baumannii [4]): 16 | fold change (FC) (Acinetobacter baumannii [5]): 16 | fold change (FC) (Acinetobacter baumannii [6]): 16 | fold change (FC) (Acinetobacter baumannii [7]): 16 | fold change (FC) (Acinetobacter baumannii [8]): 16 | fold change (FC) (Acinetobacter baumannii [9]): 16

Reference: ChEMBL document CHEMBL4725412, “Augmenting the Activity of Macrolide Adjuvants against Acinetobacter baumannii” (2020)
